From PubChem BioAssay AID1259411 (Chemical Carcinogenesis Research Information System (CCRIS), 2018)
Activity calls are given as the source filed them. How the calls were made is not given here.

System: rodent carcinogenicity bioassays, tumor incidence
Experiment: CCRIS carcinogenicity studies
Procedure, shortened: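 Archive of carcinogenicity, mutagenicity, tumor promotion and tumor inhibition results drawn from journals, NCI reports and other sources, expert-reviewed; covers 1985-2011 and is no longer updated.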

COc1cc2c(c3oc(=O)c4c(c13)CCC4=O)[C@@H]1C=CO[C@@H]1O2
carcinogen call (Species: FISH, Strain/Sex: COHO SALMON, Route: DIET, Dose: 0, 40 PPB IN DIET FOR 4 WK (STUDY DURATION: 12 MO)): inactive; negative | carcinogen call (Species: FISH, Strain/Sex: COHO SALMON, Route: DIET, Dose: 0, 5000 PPB FOR 3 WK (STUDY DURATION: 12 MO)): inactive; negative | carcinogen call (Species: FISH, Strain/Sex: COHO SALMON, Route: IMMERSION, Dose: 0, 0.5 PPM AQUEOUS SOLUTION FOR 30 MIN EXPOSURE OF EMBRYOS 4-5 D BEFORE HATCHING (STUDY DURATION: 12 MO)): inactive; negative | carcinogen call (Species: FISH, Strain/Sex: MT. SHASTA RAINBOW TROUT, Route: IMMERSION, Dose: 0, 0.5 PPM AQUEOUS SOLUTION FOR 15 MIN EXPOSURE OF EMBRYOS 4-5 D BEFORE HATCHING (STUDY DURATION: 12 MO), Tumor Site: Type of Lesion: LIVER: HEPATOCELLULAR CARCINOMA): active; positive | carcinogen call (Species: FISH, Strain/Sex: MT. SHASTA RAINBOW TROUT, Route: ORAL, Dose: 0, 20 PPB IN DIET FOR 4 WK (STUDY DURATION: 12 MO), Tumor Site: Type of Lesion: LIVER: HEPATOCELLULAR CARCINOMA): active; positive | carcinogen call (Species: FISH, Strain/Sex: RAINBOW TROUT, Route: ORAL, Dose: 0, 1.5, 7.5 UG/DIET FOR 5.5 MO (STUDY DURATION: 5.5 MO), Dose: 0, 1.5, 7.5 UG/DIET FOR 5.5 MO (STUDY DURATION: 5.5 MO), Tumor Site: Type of Lesion: LIVER: HEPATOMA): active; positive | carcinogen call (Species: FISH, Strain/Sex: RAINBOW, Route: DIET, Dose: 0, 6 PPB FOR UP TO 1 YR, Tumor Site: Type of Lesion: LIVER: HEPATOCELLULAR CARCINOMA): active; positive | carcinogen call (Species: FISH, Strain/Sex: SHASTA RAINBOW TROUT/MALE, FEMALE, Route: IMMERSION, Dose: 0, 0.01, 0.025, 0.05, 0.1, 0.25, 0.5 PPM SOLUTION IN WATER FOR 1 HR EXPOSURE OF EMBRYOS (STUDY DURATION: 13 MO), Dose: 0, 0.01, 0.025, 0.05, 0.1, 0.25, 0.5 PPM SOLUTION IN WATER FOR 1 HR EXPOSURE OF EMBRYOS (STUDY DURATION: 13 MO), Tumor Site: Type of Lesion: LIVER: TUMOR): active; positive | carcinogen call (Species: FISH, Strain/Sex: SHASTA RAINBOW TROUT/MALE, FEMALE, Route: ORAL, Dose: 0, 4, 8, 16, 32, 64 PPB IN DIET FOR 2 WK FOLLOWED BY CONTROL DIET FOR THE DURATION OF STUDY (STUDY DURATION: 9 MO), Dose: 0, 4, 8, 16, 32, 64 PPB IN DIET FOR 2 WK FOLLOWED BY CONTROL DIET FOR THE DURATION OF STUDY (STUDY DURATION: 9 MO), Tumor Site: Type of Lesion: LIVER: TUMOR): active; positive | carcinogen call (Species: HUMAN, Route: ORAL, Tumor Site: Type of Lesion: LIVER): active; positive | carcinogen call (Species: MONKEY, Strain/Sex: AFRICAN GREEN/MALE,FEMALE, Route: INTRAPERITONEAL, Dose: 99-134 MG TOTAL DOSE, 1/WK FOR AT LEAST 2 YR, Tumor Site: Type of Lesion: LIVER: CARCINOMA, HEMANGIOENDOTHELIAL SARCOMA, GALL BLADDER (BILE DUCT): ADENOCARCINOMA, PANCREAS: HEMANGIOENDOTHELIAL S, Tumor Site: Type of Lesion: LIVER: CARCINOMA, HEMANGIOENDOTHELIAL SARCOMA, GALL BLADDER (BILE DUCT): ADENOCARCINOMA, PANCREAS: HEMANGIOENDOTHELIAL S): active; positive | carcinogen call (Species: MONKEY, Strain/Sex: AFRICAN GREEN/MALE,FEMALE, Route: ORAL, Dose: 99-134 MG TOTAL DOSE, 1/WK FOR AT LEAST 2 YR, Tumor Site: Type of Lesion: LIVER: CARCINOMA, HEMANGIOENDOTHELIAL SARCOMA, GALL BLADDER (BILE DUCT): ADENOCARCINOMA, PANCREAS: HEMANGIOENDOTHELIAL S, Tumor Site: Type of Lesion: LIVER: CARCINOMA, HEMANGIOENDOTHELIAL SARCOMA, GALL BLADDER (BILE DUCT): ADENOCARCINOMA, PANCREAS: HEMANGIOENDOTHELIAL S): active; positive | carcinogen call (Species: MONKEY, Strain/Sex: CYNOMOLGUS/MALE,FEMALE, Route: INTRAPERITONEAL, Dose: 99-134 MG TOTAL DOSE, 1/WK FOR AT LEAST 2 YR, Tumor Site: Type of Lesion: LIVER: CARCINOMA, HEMANGIOENDOTHELIAL SARCOMA, GALL BLADDER (BILE DUCT): ADENOCARCINOMA, PANCREAS: HEMANGIOENDOTHELIAL S, Tumor Site: Type of Lesion: LIVER: CARCINOMA, HEMANGIOENDOTHELIAL SARCOMA, GALL BLADDER (BILE DUCT): ADENOCARCINOMA, PANCREAS: HEMANGIOENDOTHELIAL S): active; positive | carcinogen call (Species: MONKEY, Strain/Sex: CYNOMOLGUS/MALE,FEMALE, Route: ORAL, Dose: 99-134 MG TOTAL DOSE, 1/WK FOR AT LEAST 2 YR, Tumor Site: Type of Lesion: LIVER: CARCINOMA, HEMANGIOENDOTHELIAL SARCOMA, GALL BLADDER (BILE DUCT): ADENOCARCINOMA, PANCREAS: HEMANGIOENDOTHELIAL S, Tumor Site: Type of Lesion: LIVER: CARCINOMA, HEMANGIOENDOTHELIAL SARCOMA, GALL BLADDER (BILE DUCT): ADENOCARCINOMA, PANCREAS: HEMANGIOENDOTHELIAL S): active; positive | carcinogen call (Species: MONKEY, Strain/Sex: RHESUS/MALE,FEMALE, Route: INTRAPERITONEAL, Dose: 99-134 MG TOTAL DOSE, 1/WK FOR AT LEAST 2 YR, Tumor Site: Type of Lesion: LIVER: CARCINOMA, HEMANGIOENDOTHELIAL SARCOMA, GALL BLADDER (BILE DUCT): ADENOCARCINOMA, PANCREAS: HEMANGIOENDOTHELIAL S, Tumor Site: Type of Lesion: LIVER: CARCINOMA, HEMANGIOENDOTHELIAL SARCOMA, GALL BLADDER (BILE DUCT): ADENOCARCINOMA, PANCREAS: HEMANGIOENDOTHELIAL S): active; positive | carcinogen call (Species: MONKEY, Strain/Sex: RHESUS/MALE,FEMALE, Route: ORAL, Dose: 99-134 MG TOTAL DOSE, 1/WK FOR AT LEAST 2 YR, Tumor Site: Type of Lesion: LIVER: CARCINOMA, HEMANGIOENDOTHELIAL SARCOMA, GALL BLADDER (BILE DUCT): ADENOCARCINOMA, PANCREAS: HEMANGIOENDOTHELIAL S, Tumor Site: Type of Lesion: LIVER: CARCINOMA, HEMANGIOENDOTHELIAL SARCOMA, GALL BLADDER (BILE DUCT): ADENOCARCINOMA, PANCREAS: HEMANGIOENDOTHELIAL S): active; positive | carcinogen call (Species: MOUSE, Route: INTRAPERITONEAL, Tumor Site: Type of Lesion: LIVER): active; positive | carcinogen call (Species: MOUSE, Route: INTRAPERITONEAL, Tumor Site: Type of Lesion: LUNG): active; positive | carcinogen call (Species: MOUSE, Strain/Sex: DDK/FEMALE, Route: TRANSPLACENTAL, Dose: 0, 20, 40, 80, 120 MG/KG ADMINISTERED INTRAPERITONEALLY TO MOTHERS ON DAY 14 OF GESTATION AND OFFSPRING OBSERVED FOR 12, Dose: 0, 20, 40, 80, 120 MG/KG ADMINISTERED INTRAPERITONEALLY TO MOTHERS ON DAY 14 OF GESTATION AND OFFSPRING OBSERVED FOR 12): inactive; negative | carcinogen call (Species: MOUSE, Strain/Sex: DDK/FEMALE, Route: TRANSPLACENTAL, Dose: 0, 40 MG/KG ADMINISTERED INTRAPERITONEALLY TO MOTHERS ON DAY 14 OF GESTATION AND OFFSPRING OBSERVED FOR 6 MO AFTER BIRTH): inactive; negative | carcinogen call (Species: MOUSE, Strain/Sex: DDK/MALE, Route: TRANSPLACENTAL, Dose: 0, 20, 40, 80, 120 MG/KG ADMINISTERED INTRAPERITONEALLY TO MOTHERS ON DAY 14 OF GESTATION AND OFFSPRING OBSERVED FOR 12, Dose: 0, 20, 40, 80, 120 MG/KG ADMINISTERED INTRAPERITONEALLY TO MOTHERS ON DAY 14 OF GESTATION AND OFFSPRING OBSERVED FOR 12, Tumor Site: Type of Lesion: LIVER: TUMOR): active; positive | carcinogen call (Species: MOUSE, Strain/Sex: DDK/MALE, Route: TRANSPLACENTAL, Dose: 0, 40 MG/KG ADMINISTERED INTRAPERITONEALLY TO MOTHERS ON DAY 14 OF GESTATION AND OFFSPRING OBSERVED FOR 6 MO AFTER BIRTH, Tumor Site: Type of Lesion: LIVER: TUMOR): active; positive | carcinogen call (Species: RAT, Route: INTRAPERITONEAL, ORAL, Tumor Site: Type of Lesion: LIVER): active; positive | carcinogen call (Species: RAT, Strain/Sex: F344/MALE, Route: ORAL, Dose: 0, 50 PPB IN AGAR BASED SEMISYNTHETIC DIET FOR STUDY DURATION (STUDY DURATION: 17 MO), Tumor Site: Type of Lesion: LIVER: HEPATOCELLULAR CARCINOMA): active; positive | carcinogen call (Species: RAT, Strain/Sex: F344/MALE, Route: ORAL, Dose: 50 PPB IN DIET 2/WK FOR 12 MO, Tumor Site: Type of Lesion: LIVER: HEPATOCELLULAR CARCINOMA): active; positive | carcinogen call (Species: RAT, Strain/Sex: SPRAGUE-DAWLEY, Route: DIET, Dose: 0, 25 UG/D FOR 15 DOSES, Tumor Site: Type of Lesion: LIVER: HEPATOCELLULAR CARCINOMA): active; positive | carcinogen call (Species: TROUT, Strain/Sex: MT. SHASTA RAINBOW, Route: ORAL, Dose: 4 PPB IN DIET FOR 12 MO, Tumor Site: Type of Lesion: LIVER: HEPATOMA): active; positive | carcinogen call (Species: TROUT, Strain/Sex: MT. SHASTA RAINBOW, Route: ORAL, Dose: 20 PPB IN DIET FOR 12 MO, Tumor Site: Type of Lesion: LIVER: HEPATOCELLULAR CARCINOMA): active; positive
